Tests used:
[1] = tested on: Tyrosine-protein kinase ABL1 (Homo sapiens), P00519 [E255K]
[2] = molecular target: Epidermal growth factor receptor (Homo sapiens) (UniProt P00533)
[3] = molecular target: Mitogen-activated protein kinase kinase kinase 4 (Homo sapiens) (UniProt Q9Y6R4)
[4] = molecular target: Platelet-derived growth factor receptor alpha (Homo sapiens) (UniProt P16234)
[5] = molecular target: BDNF/NT-3 growth factors receptor (Homo sapiens) (UniProt Q16620)
[6] = molecular target: Receptor tyrosine-protein kinase erbB-3 (Homo sapiens) (UniProt P21860)
[7] = molecular target: Tyrosine-protein kinase CSK (Homo sapiens) (UniProt P41240)
[8] = molecular target: Phosphatidylinositol 3-kinase C2 domain-containing subunit gamma (Homo sapiens) (UniProt O75747)
[9] = molecular target: Vascular endothelial growth factor receptor 2 (Homo sapiens) (UniProt P35968)
[10] = molecular target: RAC-gamma serine/threonine-protein kinase (Homo sapiens) (UniProt Q9Y243)
[11] = tested on: Tyrosine-protein kinase ABL1 (Homo sapiens), P00519 [H396P]
[12] = molecular target: Mitogen-activated protein kinase 15 (Homo sapiens) (UniProt Q8TD08)
[13] = molecular target: Tyrosine-protein kinase Blk (Homo sapiens) (UniProt P51451)
[14] = molecular target: 5'-AMP-activated protein kinase catalytic subunit alpha-1 (Homo sapiens) (UniProt Q13131)
[15] = molecular target: Tyrosine-protein kinase Fes/Fps (Homo sapiens) (UniProt P07332)
[16] = molecular target: G protein-coupled receptor kinase 3 (Homo sapiens) (UniProt P35626)
[17] = molecular target: Serine/threonine-protein kinase NIM1 (Homo sapiens) (UniProt Q8IY84)
[18] = tested on: Epidermal growth factor receptor (Homo sapiens), P00533 [T790M]
[19] = molecular target: Ribosomal protein S6 kinase alpha-6 (Homo sapiens) (UniProt Q9UK32)
[20] = molecular target: Platelet-derived growth factor receptor beta (Homo sapiens) (UniProt P09619)
[21] = molecular target: Uncharacterized serine/threonine-protein kinase SBK3 (Homo sapiens) (UniProt P0C264)
[22] = molecular target: cAMP-dependent protein kinase catalytic subunit PRKX (Homo sapiens) (UniProt P51817)
[23] = molecular target: Dual specificity testis-specific protein kinase 1 (Homo sapiens) (UniProt Q15569)
[24] = tested on: Epidermal growth factor receptor (Homo sapiens), P00533 [UNDEFINED MUTATION]
[25] = molecular target: Serine/threonine-protein kinase PAK 4 (Homo sapiens) (UniProt O96013)
[26] = molecular target: Serine/threonine-protein kinase pim-3 (Homo sapiens) (UniProt Q86V86)
[27] = molecular target: Mitogen-activated protein kinase 9 (Homo sapiens) (UniProt P45984)
[28] = molecular target: Ephrin type-A receptor 2 (Homo sapiens) (UniProt P29317)
[29] = molecular target: Casein kinase I isoform delta (Homo sapiens) (UniProt P48730)
[30] = molecular target: Casein kinase I isoform epsilon (Homo sapiens) (UniProt P49674)
[31] = molecular target: Serine/threonine-protein kinase LATS1 (Homo sapiens) (UniProt O95835)
[32] = molecular target: 5-hydroxytryptamine receptor 2A (Homo sapiens) (UniProt P28223); settings: Compound concentration 10.0 uM
[33] = molecular target: Inhibitor of nuclear factor kappa-B kinase subunit beta (Homo sapiens) (UniProt O14920)
[34] = molecular target: Tyrosine-protein kinase JAK1 (Homo sapiens) (UniProt P23458)
[35] = molecular target: Phosphatidylinositol 4-phosphate 5-kinase type-1 gamma (Homo sapiens) (UniProt O60331)
[36] = molecular target: Phosphatidylinositol 4,5-bisphosphate 3-kinase catalytic subunit beta isoform (Homo sapiens) (UniProt P42338)
[37] = molecular target: Dual specificity protein kinase CLK1 (Homo sapiens) (UniProt P49759)
[38] = molecular target: Rho-associated protein kinase 1 (Homo sapiens) (UniProt Q13464)
[39] = molecular target: SRSF protein kinase 2 (Homo sapiens) (UniProt P78362)
[40] = molecular target: Tyrosine-protein kinase ZAP-70 (Homo sapiens) (UniProt P43403)
[41] = molecular target: Serine/threonine-protein kinase pim-1 (Homo sapiens) (UniProt P11309)
[42] = molecular target: Histamine H1 receptor (Homo sapiens) (UniProt P35367); settings: Compound concentration 10.0 uM
[43] = molecular target: Casein kinase I isoform alpha (Homo sapiens) (UniProt P48729)
[44] = molecular target: Glycogen synthase kinase-3 beta (Homo sapiens, UniProt P49841)
[45] = tested on: Tyrosine-protein kinase ABL1 (Homo sapiens), P00519 [F317I]
[46] = Compound concentration 100.0 nM
[47] = Compound concentration 1000.0 nM

cAMP-dependent protein kinase catalytic subunit PRKX (Homo sapiens), sequence (P51817 whole entry): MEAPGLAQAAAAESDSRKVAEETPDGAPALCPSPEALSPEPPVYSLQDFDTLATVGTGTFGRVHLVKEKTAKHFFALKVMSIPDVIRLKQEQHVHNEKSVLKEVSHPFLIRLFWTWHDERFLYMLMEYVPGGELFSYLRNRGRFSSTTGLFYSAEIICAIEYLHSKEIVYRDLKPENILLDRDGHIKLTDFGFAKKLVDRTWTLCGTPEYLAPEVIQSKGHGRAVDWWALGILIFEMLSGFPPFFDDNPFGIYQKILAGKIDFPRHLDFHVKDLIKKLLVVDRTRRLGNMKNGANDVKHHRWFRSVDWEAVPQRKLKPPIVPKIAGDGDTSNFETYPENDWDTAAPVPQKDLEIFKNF
Platelet-derived growth factor receptor alpha (Homo sapiens), sequence (P16234 whole entry): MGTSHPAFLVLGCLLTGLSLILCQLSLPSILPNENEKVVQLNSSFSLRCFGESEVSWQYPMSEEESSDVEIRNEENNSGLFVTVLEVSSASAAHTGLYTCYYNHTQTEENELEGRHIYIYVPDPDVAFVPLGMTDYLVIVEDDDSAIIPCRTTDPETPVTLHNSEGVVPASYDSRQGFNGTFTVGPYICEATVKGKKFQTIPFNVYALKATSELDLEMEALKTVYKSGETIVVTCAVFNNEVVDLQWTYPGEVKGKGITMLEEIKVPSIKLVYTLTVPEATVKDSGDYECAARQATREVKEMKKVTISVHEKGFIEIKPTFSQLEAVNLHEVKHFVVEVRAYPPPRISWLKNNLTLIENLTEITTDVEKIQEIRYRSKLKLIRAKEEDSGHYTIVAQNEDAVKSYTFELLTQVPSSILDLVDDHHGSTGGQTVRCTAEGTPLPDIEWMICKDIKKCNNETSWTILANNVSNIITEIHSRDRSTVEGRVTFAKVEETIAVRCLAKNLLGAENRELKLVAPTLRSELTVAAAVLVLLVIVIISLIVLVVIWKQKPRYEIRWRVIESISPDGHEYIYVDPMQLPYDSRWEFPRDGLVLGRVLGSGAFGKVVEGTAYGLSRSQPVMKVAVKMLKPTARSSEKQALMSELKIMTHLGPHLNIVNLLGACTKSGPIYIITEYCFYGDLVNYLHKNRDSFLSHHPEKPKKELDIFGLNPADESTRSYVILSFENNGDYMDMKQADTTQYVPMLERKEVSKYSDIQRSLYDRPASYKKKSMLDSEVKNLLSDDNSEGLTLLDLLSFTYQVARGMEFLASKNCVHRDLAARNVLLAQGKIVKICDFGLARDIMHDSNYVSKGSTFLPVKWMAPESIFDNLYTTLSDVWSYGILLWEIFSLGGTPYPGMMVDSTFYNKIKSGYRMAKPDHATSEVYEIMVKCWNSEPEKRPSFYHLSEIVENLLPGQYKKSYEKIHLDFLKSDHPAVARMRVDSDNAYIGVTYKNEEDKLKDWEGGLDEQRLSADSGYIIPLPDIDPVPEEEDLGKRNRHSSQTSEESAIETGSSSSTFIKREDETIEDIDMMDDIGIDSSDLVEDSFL
Platelet-derived growth factor receptor beta (Homo sapiens), sequence (P09619 whole entry): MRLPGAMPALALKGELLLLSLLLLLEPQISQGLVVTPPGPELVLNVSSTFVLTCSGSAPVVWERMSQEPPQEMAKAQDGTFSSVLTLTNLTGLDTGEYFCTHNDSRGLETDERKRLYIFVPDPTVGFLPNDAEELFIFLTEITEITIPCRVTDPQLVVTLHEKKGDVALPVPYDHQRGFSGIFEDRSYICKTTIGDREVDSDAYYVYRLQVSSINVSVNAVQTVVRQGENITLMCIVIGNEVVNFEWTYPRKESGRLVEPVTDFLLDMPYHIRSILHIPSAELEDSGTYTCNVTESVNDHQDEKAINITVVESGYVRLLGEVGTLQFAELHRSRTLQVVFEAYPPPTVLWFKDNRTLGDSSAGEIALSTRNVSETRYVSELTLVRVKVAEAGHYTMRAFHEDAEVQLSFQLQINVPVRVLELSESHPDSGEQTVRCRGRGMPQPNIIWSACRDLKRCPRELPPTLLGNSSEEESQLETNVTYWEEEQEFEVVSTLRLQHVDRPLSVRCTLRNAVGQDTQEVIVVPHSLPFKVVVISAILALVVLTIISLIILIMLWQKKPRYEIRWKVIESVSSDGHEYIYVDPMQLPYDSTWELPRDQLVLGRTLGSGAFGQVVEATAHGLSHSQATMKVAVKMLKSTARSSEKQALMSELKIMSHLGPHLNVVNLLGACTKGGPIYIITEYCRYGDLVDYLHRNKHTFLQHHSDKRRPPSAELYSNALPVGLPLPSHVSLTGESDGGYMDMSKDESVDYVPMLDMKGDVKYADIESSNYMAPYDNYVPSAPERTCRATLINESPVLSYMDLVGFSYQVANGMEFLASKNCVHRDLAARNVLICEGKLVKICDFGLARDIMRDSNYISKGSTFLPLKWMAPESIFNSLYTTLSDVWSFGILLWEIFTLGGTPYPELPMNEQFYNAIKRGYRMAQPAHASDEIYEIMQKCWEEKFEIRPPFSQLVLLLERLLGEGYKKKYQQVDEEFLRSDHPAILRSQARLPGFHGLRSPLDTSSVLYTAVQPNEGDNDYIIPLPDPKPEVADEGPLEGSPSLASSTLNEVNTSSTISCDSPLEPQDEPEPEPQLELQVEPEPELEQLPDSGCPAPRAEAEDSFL
Vascular endothelial growth factor receptor 2 (Homo sapiens), sequence (P35968 whole entry): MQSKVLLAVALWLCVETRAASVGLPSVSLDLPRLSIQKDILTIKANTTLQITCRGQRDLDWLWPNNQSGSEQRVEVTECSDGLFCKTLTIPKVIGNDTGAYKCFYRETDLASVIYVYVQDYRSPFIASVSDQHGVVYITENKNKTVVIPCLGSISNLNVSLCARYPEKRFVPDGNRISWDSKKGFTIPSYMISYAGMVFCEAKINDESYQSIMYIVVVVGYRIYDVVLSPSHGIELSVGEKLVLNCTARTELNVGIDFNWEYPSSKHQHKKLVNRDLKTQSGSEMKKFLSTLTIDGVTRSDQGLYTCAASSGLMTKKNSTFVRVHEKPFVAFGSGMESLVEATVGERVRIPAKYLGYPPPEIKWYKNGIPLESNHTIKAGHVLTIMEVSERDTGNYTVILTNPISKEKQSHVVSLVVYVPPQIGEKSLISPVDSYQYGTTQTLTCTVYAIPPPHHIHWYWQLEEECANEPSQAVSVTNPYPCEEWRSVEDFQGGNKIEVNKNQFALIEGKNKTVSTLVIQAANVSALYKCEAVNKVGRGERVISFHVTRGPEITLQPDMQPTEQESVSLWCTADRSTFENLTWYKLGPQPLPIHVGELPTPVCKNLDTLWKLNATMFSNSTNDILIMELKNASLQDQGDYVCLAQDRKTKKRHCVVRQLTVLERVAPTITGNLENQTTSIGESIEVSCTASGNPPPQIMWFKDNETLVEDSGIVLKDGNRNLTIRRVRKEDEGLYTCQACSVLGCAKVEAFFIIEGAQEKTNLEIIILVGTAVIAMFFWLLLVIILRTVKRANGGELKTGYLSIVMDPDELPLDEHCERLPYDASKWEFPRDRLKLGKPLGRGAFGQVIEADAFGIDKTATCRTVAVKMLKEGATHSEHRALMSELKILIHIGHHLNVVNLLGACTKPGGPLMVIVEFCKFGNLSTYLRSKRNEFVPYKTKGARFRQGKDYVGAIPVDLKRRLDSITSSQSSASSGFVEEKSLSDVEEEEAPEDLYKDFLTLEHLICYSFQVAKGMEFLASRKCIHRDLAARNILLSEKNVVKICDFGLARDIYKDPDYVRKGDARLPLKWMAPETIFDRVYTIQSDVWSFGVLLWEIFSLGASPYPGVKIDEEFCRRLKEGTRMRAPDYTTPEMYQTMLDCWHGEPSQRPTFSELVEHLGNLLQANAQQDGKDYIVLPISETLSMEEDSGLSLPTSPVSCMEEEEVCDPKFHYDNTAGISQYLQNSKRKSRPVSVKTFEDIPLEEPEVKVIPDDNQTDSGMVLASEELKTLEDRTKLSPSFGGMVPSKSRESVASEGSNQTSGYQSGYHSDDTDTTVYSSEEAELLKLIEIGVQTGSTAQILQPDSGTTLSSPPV
Casein kinase I isoform epsilon (Homo sapiens), sequence (P49674 whole entry, looked up, canonical isoform): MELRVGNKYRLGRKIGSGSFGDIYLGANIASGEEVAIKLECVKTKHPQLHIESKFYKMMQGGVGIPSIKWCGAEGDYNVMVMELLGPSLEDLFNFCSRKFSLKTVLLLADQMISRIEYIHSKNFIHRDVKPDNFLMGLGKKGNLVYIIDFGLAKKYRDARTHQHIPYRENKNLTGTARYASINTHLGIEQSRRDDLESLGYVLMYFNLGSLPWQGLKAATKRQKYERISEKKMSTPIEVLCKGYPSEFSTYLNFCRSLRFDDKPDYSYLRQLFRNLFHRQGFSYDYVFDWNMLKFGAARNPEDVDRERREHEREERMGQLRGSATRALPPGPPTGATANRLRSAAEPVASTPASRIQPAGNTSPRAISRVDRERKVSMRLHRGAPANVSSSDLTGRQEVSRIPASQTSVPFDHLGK
Inhibitor of nuclear factor kappa-B kinase subunit beta (Homo sapiens), sequence (O14920 whole entry): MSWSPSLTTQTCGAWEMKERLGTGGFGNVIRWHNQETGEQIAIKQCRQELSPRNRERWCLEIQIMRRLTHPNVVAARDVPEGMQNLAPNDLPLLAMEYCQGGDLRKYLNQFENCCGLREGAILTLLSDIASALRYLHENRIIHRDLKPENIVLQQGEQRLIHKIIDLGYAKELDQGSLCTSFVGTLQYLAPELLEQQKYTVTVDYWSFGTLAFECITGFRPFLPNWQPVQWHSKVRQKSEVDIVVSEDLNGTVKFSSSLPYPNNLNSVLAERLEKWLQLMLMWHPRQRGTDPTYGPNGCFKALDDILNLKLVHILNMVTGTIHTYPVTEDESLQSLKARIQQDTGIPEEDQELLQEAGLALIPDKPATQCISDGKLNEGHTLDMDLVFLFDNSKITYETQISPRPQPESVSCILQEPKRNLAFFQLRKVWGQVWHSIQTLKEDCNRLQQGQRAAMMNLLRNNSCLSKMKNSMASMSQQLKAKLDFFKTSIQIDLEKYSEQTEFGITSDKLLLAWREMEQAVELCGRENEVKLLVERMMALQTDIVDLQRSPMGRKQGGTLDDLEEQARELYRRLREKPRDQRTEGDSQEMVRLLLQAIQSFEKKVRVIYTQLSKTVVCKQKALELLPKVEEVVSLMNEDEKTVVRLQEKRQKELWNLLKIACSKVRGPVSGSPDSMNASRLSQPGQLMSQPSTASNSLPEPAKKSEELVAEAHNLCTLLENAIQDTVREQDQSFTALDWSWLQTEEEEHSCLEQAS

What does the source list for `C[C@@H](NC(=O)Nc1cc2[nH]ncc2c(CO)n1)c1ccccc1` [ERKi]?
residual activity [1, 46]: 83.4%; residual activity [2, 46]: 80.6%; residual activity [3, 46]: 100%; residual activity [4, 46]: 87.3%; residual activity [5, 46]: 63.6%; residual activity [6, 46]: 99%; residual activity [7, 46]: 77.1%; residual activity [8, 46]: 68.3%; residual activity [9, 46]: 100%; residual activity [10, 46]: 73.3%; residual activity [11, 46]: 94.6%; residual activity [12, 46]: 37.1%; residual activity [13, 46]: 100%; residual activity [14, 46]: 91%; residual activity [15, 46]: 100%; residual activity [16, 46]: 60.8%; residual activity [17, 46]: 100%; residual activity [18, 46]: 82.1%; residual activity [19, 46]: 96.8%; residual activity [20, 46]: 95.8%; residual activity [21, 46]: 100%; residual activity [22, 46]: 46.1%; residual activity [23, 46]: 100%; residual activity [24, 46]: 88.7%; residual activity [25, 46]: 93.7%; residual activity [26, 46]: 82.9%; residual activity [27, 46]: 79.5%; residual activity [28, 46]: 100%; residual activity [29, 46]: 84.7%; residual activity [30, 46]: 95.1%; residual activity [31, 46]: 59.3%; inhibition [32]: 7.44%; residual activity [33, 46]: 100%; residual activity [34, 46]: 91.2%; residual activity [35, 46]: 89.9%; residual activity [36, 46]: 81.5%; residual activity [37, 46]: 72.6%; residual activity [38, 46]: 64.7%; residual activity [39, 46]: 61.2%; residual activity [40, 46]: 95.8%; residual activity [41, 46]: 90.3%; inhibition [42]: -7.28%; residual activity [43, 46]: 84.6%; residual activity [44, 46]: 100%; residual activity [45, 46]: 100%

How did the residual activity [1, 47] turn out when `C[C@H](NC(=O)Nc1cc2[nH]ncc2c(CO)n1)c1ccccn1` [ERKi-NC] was run?
Its residual activity is 81.4%.

What about the residual activity [2, 47] of the same compound?
The residual activity was 100%.

What about the residual activity [3, 47] of the same compound?
Its residual activity is 53.1%.

What about the residual activity [4, 47] of the same compound?
The residual activity was 100%.

What about the residual activity [5, 47] of the same compound?
Its residual activity is 68.5%.

And the residual activity [6, 47]?
Its residual activity is 60.6%.

What about the residual activity [7, 47] of the same compound?
Its residual activity is 100%.

And the residual activity [8, 47]?
Its residual activity is 93.1%.

What about the residual activity [9, 47] of the same compound?
Its residual activity is 100%.

What about the residual activity [10, 47] of the same compound?
The residual activity was 100%.

And the residual activity [11, 47]?
Its residual activity is 72.5%.

What about the residual activity [12, 47] of the same compound?
The residual activity was 100%.

What about the residual activity [13, 47] of the same compound?
Its residual activity is 100%.

What about the residual activity [14, 47] of the same compound?
The residual activity was 100%.

And the residual activity [15, 47]?
The residual activity was 100%.

And the residual activity [16, 47]?
The residual activity was 88.7%.

And the residual activity [17, 47]?
Its residual activity is 100%.

What about the residual activity [18, 47] of the same compound?
The residual activity was 100%.

And the residual activity [19, 47]?
Its residual activity is 82.7%.

And the residual activity [20, 47]?
Its residual activity is 100%.

What about the residual activity [21, 47] of the same compound?
The residual activity was 100%.

What about the residual activity [22, 47] of the same compound?
The residual activity was 100%.

What about the residual activity [23, 47] of the same compound?
Its residual activity is 100%.

And the residual activity [24, 47]?
The residual activity was 100%.

And the residual activity [25, 47]?
Its residual activity is 90.2%.

What about the residual activity [26, 47] of the same compound?
Its residual activity is 100%.

And the residual activity [27, 47]?
Its residual activity is 100%.

And the residual activity [28, 47]?
Its residual activity is 100%.

What about the residual activity [29, 47] of the same compound?
Its residual activity is 100%.

What about the residual activity [30, 47] of the same compound?
The residual activity was 96.1%.

What about the residual activity [31, 47] of the same compound?
Its residual activity is 100%.

And the inhibition [32]?
Its inhibition is 7.64%.

What about the residual activity [33, 47] of the same compound?
Its residual activity is 100%.

And the residual activity [34, 47]?
Its residual activity is 100%.

What about the residual activity [35, 47] of the same compound?
Its residual activity is 99.3%.

What about the residual activity [36, 47] of the same compound?
The residual activity was 100%.

And the residual activity [37, 47]?
Its residual activity is 94.4%.

And the residual activity [38, 47]?
Its residual activity is 66%.

What about the residual activity [39, 47] of the same compound?
Its residual activity is 100%.

What about the residual activity [40, 47] of the same compound?
Its residual activity is 77.9%.

What about the residual activity [41, 47] of the same compound?
Its residual activity is 78.2%.

And the inhibition [42]?
Its inhibition is 4.18%.

And the residual activity [43, 47]?
Its residual activity is 56.5%.

What about the residual activity [44, 47] of the same compound?
The residual activity was 100%.

What about the residual activity [45, 47] of the same compound?
The residual activity was 100%.

From ChEMBL document CHEMBL4507286 (2021)
